Source: US20230406831A1, “COMPOUNDS AND METHODS OF INHIBITING BACTERIAL CHAPERONIN SYSTEMS” (THE TRUSTEES OF INDIANA UNIVERSITY, priority 2020, published 2023)

How the values were obtained:
HSP60/10 = biological target: T1, HSP60/10 (Homo sapiens, UniProt P10809); assay: HSP60/10-mediated dMDH refolding assay; assay type: biochemical; details: Table 3; 37° C., 1 mM ATP; read-out: Biochemical Assay IC50 HSP60/10-dMDH Refolding
T1 construct: octa-Histidine (His8) tag, TEV-cleavable (N, cleaved yes); made in house; host or cells: HSP60 in Rosetta 2 (DE3) E. coli; HSP10 in Rosetta 2 (DE3) pLysS
T1 sequence (P10809 27-573): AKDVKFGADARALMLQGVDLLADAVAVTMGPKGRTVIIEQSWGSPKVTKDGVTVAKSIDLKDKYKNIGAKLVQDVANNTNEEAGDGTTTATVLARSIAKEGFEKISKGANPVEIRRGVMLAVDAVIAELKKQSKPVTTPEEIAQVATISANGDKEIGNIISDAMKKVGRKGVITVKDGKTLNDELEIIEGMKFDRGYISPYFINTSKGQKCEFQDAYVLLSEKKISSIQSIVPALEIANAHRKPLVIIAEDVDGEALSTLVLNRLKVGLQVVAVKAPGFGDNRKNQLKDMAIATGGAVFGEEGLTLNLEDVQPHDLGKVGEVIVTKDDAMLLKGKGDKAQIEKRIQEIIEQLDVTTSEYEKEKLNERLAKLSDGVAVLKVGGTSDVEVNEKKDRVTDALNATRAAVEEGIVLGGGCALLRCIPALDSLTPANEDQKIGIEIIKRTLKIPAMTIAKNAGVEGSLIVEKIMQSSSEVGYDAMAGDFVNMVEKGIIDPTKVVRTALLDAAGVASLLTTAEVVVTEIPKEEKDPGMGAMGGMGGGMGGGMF
Procedure: (§1) Evaluation of compounds ability to inhibit GroEL/ES and HSP60/10-mediated dMDH refolding assays.
(§2) Reagent preparation: For these assays, four primary reagent stocks were prepared: 1) GroEL/ES-dMDH or HSP60/10-dMDH binary complex stock; 2) ATP initiation stock; 3) EDTA quench stock; 4) MDH enzymatic assay stock. Denatured MDH (dMDH) was prepared by 2-fold dilution of MDH (5 mg/ml, soluble pig heart MDH from Roche, product #10127248001) with denaturant buffer (7 M guanidine-HCl, 200 mM Tris, pH 7.4, and 50 mM DTT). MDH was completely denatured by incubating at room temperature for 45 min. The binary complex solutions were prepared by slowly adding the dMDH stock to a stirring stock with GroEL (or HSP60) in folding buffer (50 mM Tris-HCl, pH 7.4, 50 mM KCl, 10 mM MglC2, and 1 mM DTT), followed by addition of GroES (or HSP10). The binary complex stocks were prepared immediately prior to dispensing into the assay plates and had final protein concentrations of 83.3 nM GroEL (Mr 800 kDa) or HSP60 (Mr 400 kDa), 100 nM GroES or HSP10 (Mr 70 kDa), and 20 nM dMDH in folding buffer. For the ATP initiation stock, ATP solid was diluted into folding buffer to a final concentration of 2.5 mM. Quench solution contained 600 mM EDTA (pH 8.0). The MDH enzymatic assay stock consisted of 20 mM sodium mesoxalate and 2.4 mM NADH in reaction buffer (50 mM Tris-HCl, pH 7.4, 50 mM KC1, and 1 mM DTT).
(§3) Assay Protocol: First, 30 μL aliquots of the GroEL/ES-dMDH or HSP60/10-dMDH binary complex stocks were dispensed into clear, 384-well polystyrene plates. Next, 0.5 μL of the compound stocks (10 mM to 4.6 μM, 3-fold dilutions series in DMSO) were added by pin-transfer (V&P Scientific). The chaperonin-mediated refolding cycles were initiated by addition of 20 IA of ATP stock (reagent concentrations during refolding cycle: 50 nM GroEL or HSP60, 60 nM GroES or HSP10, 12 nM dMDH, 1 mM ATP, and compounds of 100 μM to 46 nM, 3-fold dilution series). The refolding reactions were incubated at 37° C. The incubation time was determined from refolding time-course control experiments until they reached ˜90% completion of refolding cycle — generally ˜20-40 min for GroEL/ES, and ˜40-60 min for HSP60/10). Next, the assay was quenched by addition of 10 μL of the EDTA to final concentration of 100 mM. […] A340 nm measurements were recorded at 0.5 minutes (start point) and at successive time points until the amount of NADH consumed reached ˜90% (end point, generally between 20-35 minutes). The differences between the start and end point A340 values were used to calculate the % inhibition of the GroEL/ES or HSP60/10 machinery by the compounds. IC50 values for the test compounds were obtained by plotting the % inhibition results in GraphPad Prism 6 and analyzing by non-linear regression using the log (inhibitor) vs. response (variable slope) equation. Results presented represent the averages of IC50 values obtained from at least quadriplicate (duplicate of duplicate) replicates. For results, see Tables 1, 2, and 3.

GroEL/ES = biological target: T2, GroEL/ES (Escherichia coli, UniProt P0A6F5); assay: GroEL/ES-mediated dMDH refolding assay; assay type: biochemical, E. coli; details: Table 3; 37° C., 1 mM ATP; read-out: Biochemical Assay IC50 GroEL/ES-dMDH Refolding
T2 construct: made in house; host or cells: GroEL in E. coli DH5a; GroES in E. coli BL21 (DE3)
T2 sequence (P0A6F5 2-548): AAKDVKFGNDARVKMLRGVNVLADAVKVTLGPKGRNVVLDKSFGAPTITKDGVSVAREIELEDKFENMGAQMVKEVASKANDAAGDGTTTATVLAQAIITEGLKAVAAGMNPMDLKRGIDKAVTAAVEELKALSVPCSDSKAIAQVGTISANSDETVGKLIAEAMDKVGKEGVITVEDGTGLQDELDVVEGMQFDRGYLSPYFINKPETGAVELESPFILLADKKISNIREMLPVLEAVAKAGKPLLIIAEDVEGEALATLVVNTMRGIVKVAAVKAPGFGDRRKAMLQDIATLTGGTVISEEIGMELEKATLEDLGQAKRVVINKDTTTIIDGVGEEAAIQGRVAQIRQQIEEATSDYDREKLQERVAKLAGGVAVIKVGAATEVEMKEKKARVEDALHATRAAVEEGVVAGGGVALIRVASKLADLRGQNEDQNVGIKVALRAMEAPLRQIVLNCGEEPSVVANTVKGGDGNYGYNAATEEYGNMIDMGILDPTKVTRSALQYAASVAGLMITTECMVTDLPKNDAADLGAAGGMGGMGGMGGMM
Procedure: as §1, §2, §3

[1] = HEK 293 kidney cell viability / cytotoxicity assay (Alamar Blue); assay type: cell-based; details: human, HEK 293 kidney cells; Table 3; 48 h incubation, Alamar Blue; read-out: HEK 293 Kidney Cell Viability CC50
Procedure: Evaluating compound effects on kidney cell viability.
HEK 293 cells were maintained in MEM medium (Corning Cellgro, 10-009 CV) supplemented with 10% FBS (Sigma, F2242). […] Cells at 80% confluence were harvested and diluted in growth medium, then 45 μL of the HEK 293 cells (1,500 cells/well) were dispensed per well, and plates were sealed with “Breathe Easy” oxygen permeable membranes (Diversified Biotech) and incubated at 37° C., 5% CO2, for 24 h. […] Plates were sealed with “Breathe Easy” oxygen permeable membranes and incubated for an additional 48 h at 37° C. and 5% CO2. The Alamar Blue reporter reagents were then added to a final concentration of 10%, the plates incubated at 37° C. and 5% CO2, and sample fluorescence (535 nm excitation, 590 nm emission) was read using a Molecular Devices FlexStation II 384-well plate reader (readings taken between 4-24 h of incubation so as to achieve signals in the 30-60% range for conversion of resazurin to resorufin). Cell viability was calculated as per vendor instructions (Thermo Fisher—Alamar Blue cell viability assay manual).

S. aureus = S. aureus bacterial proliferation assay; assay type: cell-based; details: Staphylococcus aureus; Table 3; cation adjusted BHI media, OD600 at 6-8 h; read-out: S. aureus Proliferation EC50
Procedure: Evaluation of compounds for inhibition of bacterial cell proliferation.
Growth Media: S. aureus bacteria were grown in Brain Heart Infusion (BHI) broth/agar (Becton, Dickinson and Company). All liquid cultures were grown in BHI media supplemented with 25 mg/L Ca^2+ and 12.5 mg/L Mg^2+ to mimic free physiological concentrations of these cations. A 10 mg/mL Ca^2+ stock solution was prepared by dissolving 3.68 g of CaCl2·2H^2O in 100 mL of deionized water, and a 10 mg/mL Mg^2+ stock solution was prepared by dissolving 8.36 g of […] in 100 mL deionized water. Both stock solutions were filter-sterilized using 0.2 μm pore size cellulose-acetate filters. 2.5 mL of the sterile 10 mg/mL Ca^2+ stock and 1.25 mL of the sterile 10 mg/mL Mg^2+ stock solutions were added per 1 L of autoclaved BHI medium to obtain 25 mg/L Ca^2+ and 12.5 mg/L Mg^2+ ions, respectively.
General Assay Protocol: Stock bacterial cultures were streaked onto BHI agar plates and grown overnight at 37° C. Fresh aliquots of broth were inoculated with single bacterial colonies and the cultures were grown overnight at 37° C. with shaking (240 rpm) in cation adjusted BHI media. The following morning, the overnight cultures were sub-cultured (1:5 dilution) into fresh aliquots of cation adjusted BHI media and grown at 37° C. for 1-2 hours with shaking. After 2 h, cultures were diluted into fresh media to achieve final OD600 readings of 0.017. Aliquots of these diluted cultures (30 μL) were added to clear, flat-bottom, 384-well polystyrene plates that were stamped with 0.5 μL of test compounds in 20 μL media. Compounds were evaluated in dose-response format where the inhibitor concentration range during the proliferation assay was 100 μM to 46 nM (3-fold dilution series). Plates were sealed with “Breathe Easy” oxygen permeable membranes (Diversified Biotech) and left to incubate at 37° C. without shaking (stagnant assay). OD600 nm readings were taken generally at 6-8 h, when bacteria had reached log-phase growth. A second set of baseline control plates were prepared analogously, but without any bacteria added, to correct for possible compound absorbance and/or precipitation. Plates were then read at 600 nm using a Molecular Devices SpectraMax Plus384 microplate reader. EC50 values for the test compounds were obtained by plotting the OD600 results in GraphPad Prism and analyzing by non-linear regression using the log(inhibitor) vs. response (variable slope) equation. For results, see Tables 1, 2, and 3.

O=C(O)c1ccc(NC(=O)c2cc(Cl)ccc2O)cc1 [Compound 109, 4-(5-chloro-2-hydroxybenzamido)benzoic acid]
> 100 µM: IC50 (HSP60/10) | IC50 (GroEL/ES) | CC50 at 48 h [1] | EC50 (S. aureus)
